Test results: ChEMBL document CHEMBL4396965

How the values were obtained:
Format in all cases: cell-based
Vero = experiment: Cytotoxicity against African green monkey Vero cells; conditions: chlorocebus sabaeus
Huh-7 = experiment: Cytotoxicity against human HuH7 cells
CCRF-CEM = experiment: Cytotoxicity against human CEM cells
A549 = experiment: Cytotoxicity against human A549 cells
PBMC = experiment: (§1) Cytotoxicity against human PBMC cells; conditions: pbmc
[1] = as §1; conditions: PBMC cells

SMILES: O=C(O)[C@H]1C2C=CC(CC2)[C@@H]1Nc1nc(-c2c[nH]c3ncc(F)cc23)nc2sccc12 (some centres not stated)
- CC50 (Vero): 65.9 µM
- CC50 (Huh-7): 24 µM
- CC50 (CCRF-CEM): 4.2 µM
- CC50 (A549): 14.5 µM
- CC50 (PBMC): 9.3 µM

SMILES: O=C(O)[C@H]1C2C=CC(CC2)[C@@H]1Nc1nc(-c2c[nH]c3ncc(F)cc23)nc2ccsc12 (some centres not stated)
- CC50 (Vero): 74.9 µM
- CC50 (Huh-7): 68.7 µM
- CC50 (CCRF-CEM): 31.6 µM
- CC50 (A549): 14.7 µM
- CC50 (PBMC): 64.6 µM

SMILES: O=C(O)[C@H]1C2C=CC(CC2)[C@@H]1Nc1nc(-c2c[nH]c3ncc(F)cc23)ncc1F (some centres not stated)
- CC50 (Vero): > 100 µM
- CC50 (CCRF-CEM): 91.1 µM
- CC50 [1]: > 100 µM

SMILES: Cc1csc2c(N[C@H]3C4C=CC(CC4)[C@@H]3C(=O)O)nc(-c3c[nH]c4ncc(F)cc34)nc12 (some centres not stated)
- CC50 (Vero): > 100 µM
- CC50 (Huh-7): > 100 µM
- CC50 (CCRF-CEM): > 100 µM
- CC50 (A549): > 100 µM
- CC50 (PBMC): > 100 µM

SMILES: O=C(O)[C@H]1C2C=CC(CC2)[C@@H]1c1nnc2c(F)cnc(-c3c[nH]c4ncc(F)cc34)n12 (some centres not stated)
- CC50 (Vero): ≥ 100 µM
- CC50 (Huh-7): ≥ 100 µM
- CC50 (CCRF-CEM): 41.7 µM
- CC50 (A549): 65.4 µM
- CC50 (PBMC): ≥ 100 µM

SMILES: O=C(O)[C@H]1C2CCC(CC2)[C@@H]1Nc1nc(-c2c[nH]c3ncc(F)cc23)ncc1F [PIMODIVIR]
- CC50 (Vero): > 100 µM
- CC50 (Huh-7): 95.8 µM
- CC50 (CCRF-CEM): 48.9 µM
- CC50 (A549): 20 µM
- CC50 (PBMC): > 100 µM

SMILES: O=C(O)[C@H]1C2C=CC(CC2)[C@@H]1Nc1nc(-c2n[nH]c3ncc(F)cc23)nc2ccsc12 (some centres not stated)
- CC50 (Vero): 52.5 µM
- CC50 (Huh-7): 70.7 µM
- CC50 (CCRF-CEM): 67 µM
- CC50 (A549): 32.5 µM
- CC50 (PBMC): > 100 µM

SMILES: O=C(O)[C@H]1C2CCC(C3CC32)[C@@H]1Nc1nc(-c2c[nH]c3ncc(F)cc23)ncc1F (some centres not stated)
- CC50 (Vero): > 100 µM
- CC50 (CCRF-CEM): 62.9 µM
- CC50 (A549): 94.6 µM
- CC50 (PBMC): > 100 µM

SMILES: Cc1cc2nc(-c3c[nH]c4ncc(F)cc34)nc(N[C@H]3C4C=CC(CC4)[C@@H]3C(=O)O)c2s1 (some centres not stated)
- CC50 (Vero): 90.3 µM
- CC50 (Huh-7): 31.2 µM
- CC50 (CCRF-CEM): 12.9 µM
- CC50 (A549): 41.7 µM
- CC50 (PBMC): 78.4 µM

SMILES: O=C(O)[C@H]1C2C=CC(CC2)[C@@H]1Nc1nc(-c2n[nH]c3ncc(F)cc23)ncc1F (some centres not stated)
- CC50 (Vero): > 100 µM
- CC50 (Huh-7): 83 µM
- CC50 (CCRF-CEM): 48.9 µM
- CC50 (A549): 30.6 µM
- CC50 (PBMC): > 100 µM

SMILES: O=C(O)[C@H]1C2C=CC(CC2)[C@@H]1Nc1nc2cnc(-c3c[nH]c4ncc(F)cc34)nc2s1 (some centres not stated)
- CC50 (Vero): 86.1 µM
- CC50 (Huh-7): 70.2 µM
- CC50 (CCRF-CEM): 17.3 µM
- CC50 (A549): 31.3 µM
- CC50 (PBMC): 84.8 µM

SMILES: Cn1cnc2c(N[C@H]3C4C=CC(CC4)[C@@H]3C(=O)O)nc(-c3c[nH]c4ncc(F)cc34)nc21 (some centres not stated)
- CC50 (Vero): > 100 µM
- CC50 (Huh-7): > 100 µM
- CC50 (CCRF-CEM): 29.1 µM
- CC50 (A549): ≥ 100 µM
- CC50 (PBMC): > 100 µM

SMILES: Cn1cnc2nc(-c3c[nH]c4ncc(F)cc34)nc(N[C@H]3C4C=CC(CC4)[C@@H]3C(=O)O)c21 (some centres not stated)
- CC50 (Vero): > 100 µM
- CC50 (Huh-7): > 100 µM
- CC50 (CCRF-CEM): > 100 µM
- CC50 (A549): > 100 µM
- CC50 (PBMC): > 100 µM

SMILES: O=C(O)[C@H]1C2C=CC(CC2)[C@@H]1Nc1nc(-c2n[nH]c3ncc(F)cc23)nc2sccc12 (some centres not stated)
- CC50 (Vero): > 100 µM
- CC50 (Huh-7): 62.7 µM
- CC50 (CCRF-CEM): 13.7 µM
- CC50 (A549): > 100 µM
- CC50 (PBMC): > 100 µM

SMILES: O=C(O)[C@H]1C2C=CC(C2)[C@@H]1Nc1nc(-c2c[nH]c3ncc(F)cc23)ncc1F (some centres not stated)
- CC50 (Vero): > 100 µM
- CC50 (Huh-7): > 100 µM
- CC50 (CCRF-CEM): > 100 µM
- CC50 (A549): > 100 µM
- CC50 (PBMC): > 100 µM

SMILES: O=C(O)C12CC3CC(CC(Nc4nc(-c5c[nH]c6ncc(F)cc56)ncc4F)(C3)C1)C2
- CC50 (Vero): 30.3 µM
- CC50 (Huh-7): 14.3 µM
- CC50 (CCRF-CEM): 10.1 µM
- CC50 (A549): 16.2 µM
- CC50 (PBMC): 23.1 µM

SMILES: O=C(O)[C@H]1C2C=CC(CC2)[C@@H]1Nc1cc2nncn2c(-c2c[nH]c3ncc(F)cc23)n1 (some centres not stated)
- CC50 (Vero): > 100 µM
- CC50 (Huh-7): 71 µM
- CC50 (CCRF-CEM): 30.8 µM
- CC50 (A549): 51.9 µM
- CC50 (PBMC): > 100 µM
